In ChEMBL document CHEMBL4418308, “cGAS ANTAGONIST COMPOUNDS” (2017) one finds IC50 data, which are given here for 43 molecules.

The target of the assay is Cyclic GMP-AMP synthase (Homo sapiens, UniProt Q8N884). The assay is described as follows: Inhibition of recombinant His6-SUMO tagged human CGAS expressed in Escherichia coli BL21/pLys cells incubated for 20 mins by Kinase Glo chemiluminescence assay. In general terms: Kinase-Glo measures the ATP left after a reaction by luminescence.
Cyclic GMP-AMP synthase, sequence (Q8N884 whole entry): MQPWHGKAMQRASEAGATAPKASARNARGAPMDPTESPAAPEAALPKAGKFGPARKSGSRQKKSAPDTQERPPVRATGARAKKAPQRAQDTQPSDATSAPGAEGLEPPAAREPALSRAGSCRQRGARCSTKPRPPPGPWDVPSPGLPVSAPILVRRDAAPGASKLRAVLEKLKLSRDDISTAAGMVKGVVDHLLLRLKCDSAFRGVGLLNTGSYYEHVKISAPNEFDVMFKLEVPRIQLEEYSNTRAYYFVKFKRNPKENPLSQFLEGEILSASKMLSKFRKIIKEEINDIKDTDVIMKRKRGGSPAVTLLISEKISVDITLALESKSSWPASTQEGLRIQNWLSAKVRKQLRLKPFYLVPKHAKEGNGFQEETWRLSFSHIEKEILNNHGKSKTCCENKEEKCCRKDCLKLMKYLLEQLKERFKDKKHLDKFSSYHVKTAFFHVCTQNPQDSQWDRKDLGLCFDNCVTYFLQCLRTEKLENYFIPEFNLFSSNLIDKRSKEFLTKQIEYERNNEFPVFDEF
One may read the IC50 as the point on the concentration scale where inhibition reaches its midpoint. On to `O=C1NC(=O)/C(=C/c2ccncc2)N1`, for which the concentration for half-maximal inhibition (IC50) lay in the range of 0.5 to 10 µM.

In the case of `O=C1NC(=O)/C(=C/c2cccnc2)S1`, the concentration for half-maximal inhibition (IC50) was no less than 10 µM. The same measure for `O=C1NC(=O)/C(=C/c2ccncc2)S1`: no more than 0.5 µM; for `O=C1/C(=C/c2cc3oc(=O)[nH]c3cc2Br)Sc2ncccc21`: no less than 10 µM. Take `COc1cc(/C=C2\Sc3ncccc3C2=O)c(Br)c(Br)c1O`: the IC50 was no less than 10 µM. In the case of `O=C1NC(=O)/C(=C/c2cncnc2)S1` it was no less than 10 µM; in that of `COc1cc(/C=c2\sc3n(c2=O)CCCN=3)c(Cl)cc1O`, no less than 10 µM; in that of `CN1C(=O)S/C(=C\c2cc3nn[nH]c3cc2Br)C1=O`, no less than 10 µM.

Take `COc1cc(/C=c2\sc3n(c2=O)CCN=3)c(Cl)cc1O`: the IC50 is no less than 10 µM. `COc1cc(/C=C2\SC(=O)N(C)C2=O)c(Br)cc1-c1nn[nH]n1`: the IC50 is no less than 10 µM.

On to `COc1cc(/C=c2\sc3n(c2=O)CCCN=3)c(Br)cc1O`, for which the half-maximal inhibitory concentration (IC50) is no less than 10 µM. In the case of `C#Cc1cc(O)c(OC)cc1/C=C1\SC(=O)N(C)C1=O` it was no less than 10 µM. The same measure for `COc1cc(/C=C2\SC(=O)N(C)C2=O)c(Br)cc1NS(=O)(=O)c1ccccc1`: no less than 10 µM; for `N=C1NC(=O)/C(=C/c2ccncc2)S1`: no less than 10 µM.

For the molecule `COc1cc(/C=C2\Sc3nccnc3C2=O)c(Br)cc1O`, the half-inhibitory concentration (IC50) is no less than 10 µM. In the case of `O=C1NC(=O)/C(=C/c2ccncc2C(F)(F)F)S1` it was no less than 10 µM; in that of `COc1cc(/C=C2\SC(=O)N(C)C2=S)c(Br)cc1O`, no more than 0.5 µM. In the case of `CN1C(=O)S/C(=C\c2cc(OCc3ccc(NC(=O)c4cccnc4)nc3)c(O)cc2Br)C1=O`, the IC50 lay in the range of 0.5 to 10 µM. For `CN1C(=O)S/C(=C\c2cc3oc(=O)[nH]c3cc2Br)C1=O`, the IC50 is no less than 10 µM. The same measure for `COc1cc(/C=c2\sc3n(c2=O)CCN=3)c(Br)cc1O`: no less than 10 µM.

With `COc1cc(/C=C2\SC(=O)N(C)C2=O)c(Br)c(Cl)c1O`, the IC50 is no less than 10 µM. As to `COc1cc(/C=C2\SC(=O)N(C)C2=O)c(C(F)(F)F)cc1O`, the IC50 is no less than 10 µM. The same measure for `COc1cc(/C=C2\Sc3cnccc3C2=O)c(Br)cc1O`: no more than 0.5 µM; for `COc1cc(/C=C2\SC(=O)N(C)C2=O)c(Br)cc1NS(C)(=O)=O`: no less than 10 µM; for `CN1C(=O)S/C(=C\c2cc(Oc3ccccc3)c(O)cc2Br)C1=O`: no less than 10 µM.

Regarding `COc1cc(/C=C2\SC(=O)N(C)C2=O)c(F)cc1O`, the IC50 is no less than 10 µM. In the case of `COc1cc(/C=C2\Sc3ncccc3C2=O)c(Br)c(Cl)c1O` it was no more than 0.5 µM. In the case of `CN1C(=O)S/C(=C\c2ccc(O)cc2Br)C1=O` it was no less than 10 µM; in that of `O=C1NC(=O)/C(=C/c2ccnnc2)N1`, no less than 10 µM; in that of `O=C1NC(=O)/C(=C2\CCCc3cnccc32)S1`, no more than 0.5 µM.

For `CN1C(=O)S/C(=C\c2cc(OCc3ccc(NC(=O)c4ccncc4)nc3)c(O)cc2Br)C1=O`, the half-inhibitory concentration (IC50) was no more than 0.5 µM. The same measure for `COc1cc(/C=c2\sc3nc(C)cn3c2=O)c(Br)cc1O`: no less than 10 µM; for `CN1C(=O)S/C(=C\c2cc(O)c(O)cc2F)C1=O`: no less than 10 µM; for `COc1cc(/C(Br)=C2\SC(=O)N(C)C2=O)c(Br)cc1O`: no less than 10 µM. With `O=C1NC(=O)/C(=C/c2c[nH]cn2)S1`, the IC50 was no less than 10 µM. For `C/C(=C1/SC(=O)NC1=O)c1ccncc1`, the half-maximal inhibitory concentration (IC50) was no more than 0.5 µM. For the molecule `COc1cc(/C=C/C=C2\SC(=O)N(C)C2=O)c(Br)cc1O`, the IC50 is no less than 10 µM. The same measure for `COc1cc2c(cc1O)CC/C2=C1/SC(=O)N(C)C1=O`: no less than 10 µM; for `O=C1NC(=O)/C(=C/c2cnccn2)S1`: no less than 10 µM; for `Cc1cnccc1/C=C1\SC(=O)NC1=O`: no more than 0.5 µM.

In the case of `COc1cc(/C=C2\Sc3ncncc3C2=O)c(Br)cc1O`, the IC50 lay in the range of 0.5 to 10 µM. The same measure for `COc1cc(/C=C2\SC(=O)N(C)C2=O)c(Br)cc1NS(=O)(=O)c1ccc(C)cc1`: no less than 10 µM; for `COc1cc(/C=C2\Sc3ncc(F)cc3C2=O)c(Br)cc1O`: no more than 0.5 µM.
